{
  "source": "patent US7199099B2",
  "about": "“Methanobactin: a copper binding compound having antibiotic and antioxidant activity isolated from methanotrophic bacteria” (priority 2002, dated 2007)",
  "key": {"[1]": {"system": "washed cell suspensions", "test": "Oxygen uptake activity of washed cell suspensions", "format": "cell-based", "experimental": "Oxygen uptake activity of washed cell suspensions was determined with a Clark oxygen electrode maintained at a constant water temperature of 37° C. Cell samples containing methanobactin were preincubated 5 minutes at 37° C. before the addition of substrate."}, "[2]": {"system": "Candida albicans, X657", "test": "Antimicrobial activity, Candida albicans X657", "format": "cell-based", "details": "purified methanobactin"}, "[3]": {"system": "Escherichia coli, X161", "test": "Antimicrobial activity, Escherichia coli X161", "format": "cell-based", "details": "purified methanobactin", "experimental": "(§1) Enterococcus fecalus was cultured aerobically on Brain Heart Infusion broth at 37° C., Staphyloccus aureus, Escherichia coli, X161, and Bacillus thuringiensis were cultured aerobically on Lauria-Burtani broth at 37° C., and Listeria monocytogenes was grown on Trypticase soy broth containing 0.6% yeast extract at 35° C. Minimum inhibitory concentrations were determined as previously described (A. F. Mendoca and S. J. Knabel. 1994. A novel strictly anaerobic recovery and enrichment system incorporating lithium for detection of heat-injured Listeria monocytogenes in pasteurized milk containing background microflora. Appl. Environ. Microbiol. 60: 4001–4008)."}, "[4]": {"system": "gram-negative bacteria", "test": "Activity against gram-negative bacteria", "format": "cell-based"}, "[5]": {"system": "Micrococcus luteus X186", "format": "cell-based"}, "[6]": {"system": "gram-positive bacteria", "test": "Bacteriocidal activity against gram-positive bacteria", "format": "cell-based, Staphylococci, Streptococci and Enterococci", "details": "including vancomycin resistant and methicillin-resistant strains", "experimental": "as §1"}, "[7]": {"format": "physicochemical", "text": "Solution properties of the methanobactin varied with metal binding and pH."}},
  "data": [
    {"compound": "CSCC[C@H](NC(=O)[C@@H]1CSSC[C@H](NC(=O)[C@H](CO)NC(=O)CN/C(S)=C2/N=C(C(=O)CC(C)C)OC2=O)C(=O)N[C@@H](Cc2ccc(O)cc2)C(=O)N2CCC[C@H]2C2=N/C(=C(\\S)N[C@@H](CO)C(=O)N1)C(=O)O2)C(=O)O", "note": "[methanobactin, N-2-isopropylester-(4-thionyl-5-hydroxy-imidazole)-Gly^1-Ser^2-Cys^3-Tyr^4-pyrrolidine-(4-thionyl-5-hydroxy-imidazole)-Ser^5-Cys^6-Met^7]", "values": [
      {"measurement": "effect on respiration", "setting": "[1]; higher concentrations", "value": "respiratory inhibitor"},
      {"measurement": "effect on respiration", "setting": "[1]; low concentrations", "value": "respiratory uncoupler"},
      {"measurement": "Antimicrobial Activity", "setting": "[2]", "value": 0},
      {"measurement": "Antimicrobial Activity", "setting": "[3]", "value": 0},
      {"measurement": "effectiveness against gram-negative bacteria", "setting": "[4]; methanobactin by itself", "value": "not been found to be effective"},
      {"measurement": "activity against gram negative bacteria in combination with a metal chelator", "setting": "[4]; with EDTA, at least about 1:1 methanobactin to EDTA", "value": "bacteriocidal"},
      {"measurement": "MIC", "setting": "[5]", "value": 24, "unit": "µg/mL"},
      {"measurement": "bacteriocidal activity against gram-positive bacteria", "setting": "[6]", "value": "bacteriocidal activity"},
      {"measurement": "solubility", "setting": "[7]", "value": "very soluble"}
    ]}
  ]
}
